Experiments:
[1] = test system: sugar-beets; experiment: sugar transport from the leaves into the beet body; type: in vivo; settings: about 2 to 3 weeks before harvest; same effect in potatoes, red beet and carrots
Source text: A further surprising inventive feature of the phytohormonal properties of ABA is the effect of promoting the protein and sugar transport in the plants from the leaves into the root(s). […] The same effect is observed in potatoes, red beet and carrots. The increase in sugar content leads to a substantial quality improvement of the harvested produce.

[2] = test system: apples and pears; experiment: leaf abortion in apples and pears; type: in vivo
Source text: This makes a further treatment with a fungicide unnecessary.

[3] = test system: firs and spruces; experiment: stress-susceptibility and needle retention of Christmas trees; type: in vivo
[4] = test system: vine; experiment: quality enhancement in wine growing with ABA; type: in vivo; settings: applied for several weeks prior to harvest
Source text: ABA can also be used for quality enhancement in wine growing. […] This leads to a higher density of the wine and thereby to wines with improved storage stability. Analogous effects occur in pears and apples.

[5] = test system: cherry crops; experiment: bursting of cherries after rainfall, exogenous application of ABA before rainfall; type: in vivo; settings: variety Hedelfinger
Source text: In cherry crops it is an important problem that if it rains shortly before the harvest the cherries are capable of absorbing large quantities of water in their interior. This frequently causes them to burst so that they can no longer be utilized. Exogenous application of ABA in cherry crops before rainfall reduces the bursting of the variety Hedelfinger, for example, by up to 30%.

[6] = test system: chrysanthemums; experiment: frost resistance, damaged flowers after frost; type: in vivo; settings: application about 24 hours prior to the frost
Method: Just as astonishing is the effect that exogenous application of ABA leads to frost resistance in crops, e.g. pears and apples, of adornment plants and fruit crops which has been observed. Application about 24 hours prior to the frost reduced the number of damaged flowers in chrysanthemums by 48%.

[7] = test system: trees in fruit crops; experiment: renewed burgeoning following rain after a prolonged period of dryness; type: in vivo, trees in fruit crops; potatoes; settings: also observed in potatoes
Source text: It has furthermore been observed that trees in fruit crops following rain after a prolonged period of dryness burgeon again. This has a negative influence on the quality of the fruit. […] This effect has also been observed in potatoes.

[8] = test system: grapes; experiment: GA3 in grapes compared to treatment with ethephon; type: in vivo
Source text: (§1) According to a further embodiment of the invention, GA3 and/or GA4/7 is/are used during the blooming period in the cultivation of […] grapes, table grapes or of grapes for special purposes, to enhance quality and as a protective measure against botrytis disease, in an application concentration of 5 to 100, preferably 5 to 50, especially 10 to 20 ppm, based on a quantity of water of 300 to 500, preferably 350 to 450 l/ha.

[9] = test system: botrytis disease; experiment: infestation of grapes with botrytis disease; type: in vivo; settings: loosening-up of the grapes (lengthening of the stalks)
Source text: as §1, with “l/ha. […] By contrast to conventional treatment with fungicides this happens purely mechanically/morphologically since the greater length of the stalks prevents mutual pushing away of the grapes, and damage to the grapes is thereby avoided. Such damage results in the occurrence of nest-shaped focuses of rot.” for “l/ha.”

Structure (SMILES) | transport of leaf sugar into the body of the beet [1] | leaf abortion [2] | needle retention ([3]; compared with untreated trees) | stress-susceptibility ([3]; firs and spruces harvested as Christmas trees) | increase in sugar content of the grapes [4] | reduction of the size of the grapes [4] | reduction of the bursting of cherries [5] | reduction of the number of damaged flowers [6] [%] | renewed burgeoning of the plants [7] | density of the wine, colour and wine quality [8] | grape weight [8] | mean grape diameter [8] | infestation with botrytis disease [9]
CC(C=C[C@@]1(O)C(C)=CC(=O)CC1(C)C)=CC(=O)O (stereo in doubt) [ABA, (S)-5-(1-hydroxy-2,6,6-trimethyl-4-oxo-2-cyclohexenyl)-3-methyl-cis/trans-2,4-pentadienoic acid] | the sugar present in the leaves is additionally transported into the body of the beet | quick leaf abortion | keep their needles for much longer than untreated trees | reduction of stress-susceptibility | comparable increase in sugar content | up to 10% | up to 30% | 48 | prevents renewed burgeoning of the plants | – | – | – | –
C=C1C[C@]23C[C@@]1(O)CC[C@H]2[C@@]12C=C[C@H](O)[C@@](C)(C(=O)O1)[C@H]2[C@@H]3C(=O)O [GA3, gibberellin A3] | – | – | – | – | – | – | – | – | – | improved | no reduction in grape weight is observed | larger | reduction in infestation with botrytis disease

— patent US20050198896A1, “Novel vegetal reinforcing agent based on phytohormones for use in the cultivation of plants or agriculture, preferably in the cultivation of fruit or in wine growing” (priority 2002, published 2005)
